Test results reported in patent publication US20240279221A1, “HETEROCYCLIC COMPOUNDS AND METHODS OF USE” (Schrödinger, Inc., priority 2021, published 2024).
pIC50, pKd: −log10 of the molar value.

What was measured:
[1] = target: SOS1:KRAS (G12C) interaction (Homo sapiens (Human), UniProt Q07889); experiment: SOS1-KRas(G12C) FRET Assay; assay type: binding; settings: 0.5 nM His10-SOS1 (res. 564-1049), 2.5 nM GST-KRAS (res. 1-169, G12C); read-out: SOS-KRas(G12C) FRET IC50
Procedure, shortened: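 TR-FRET measured binding of His10-SOS1 (res. 564-1049, 0.5 nM) to GST-KRAS G12C (res. 1-169, 2.5 nM), with anti-GST-Eu(K) and anti-6His-XL665 labels, in PBS with BSA, MgCl2, KF and DTT; 0.5% DMSO. Compound and SOS1 were pre-incubated 15 min at 25° C, KRAS was added, and the plate was read at 665/615 nm after 2 h at RT. IC50 and Hill slope came from non-linear regression.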

[2] = target: human SOS1 (Homo sapiens (Human), UniProt Q07889); experiment: Surface Plasmon Resonance (SPR) SOS1 Binding Assay; settings: biotinylated SOS1 (res. 564-1049), 25° C., kinetic or steady state fit, read-out: KD for hSOS1
Sequence of human SOS1 (Q07889 564-1049): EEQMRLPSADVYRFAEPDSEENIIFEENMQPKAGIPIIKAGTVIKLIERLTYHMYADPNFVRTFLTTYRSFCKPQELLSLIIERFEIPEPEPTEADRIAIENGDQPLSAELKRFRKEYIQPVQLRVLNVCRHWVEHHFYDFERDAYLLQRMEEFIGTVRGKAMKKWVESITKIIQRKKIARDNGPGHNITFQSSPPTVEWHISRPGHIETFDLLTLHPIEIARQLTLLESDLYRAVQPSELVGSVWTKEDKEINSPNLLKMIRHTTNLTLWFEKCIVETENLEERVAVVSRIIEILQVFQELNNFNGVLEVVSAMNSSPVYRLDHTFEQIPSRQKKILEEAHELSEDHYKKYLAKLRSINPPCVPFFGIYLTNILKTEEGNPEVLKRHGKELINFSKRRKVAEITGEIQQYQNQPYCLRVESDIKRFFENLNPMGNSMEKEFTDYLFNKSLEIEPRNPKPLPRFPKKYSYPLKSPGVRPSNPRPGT
Procedure: Binding to SOS1 was measured using a SPR assay with purified recombinant human SOS1 substrate (res. 564-1049 with N-terminal Avi tag; purified and biotinylated based on Hillig, et al., Proc Natl Acad Sci USA (2019); 116(7):2551-2560). SPR measurements were performed on a Biacore 8K SPR instrument (GE Healthcare, Sweden). Assays were performed at 25° C. using Series S SA sensor chips pre-coated with streptavidin (GE Healthcare, Cat. BR100531). Biotinylated SOS1 diluted in sample buffer (20 mM Tris HCl, 150 mM NaCl, 1 mM DTT, 0.05% TWEEN 20, 1 mM MgCl2, pH 8.0) was captured to one flow cell of the chip to about 3,000 resonance units (RU) using sample buffer supplemented with 5% DMSO as a running buffer. Serial dilutions of the assayed compounds in the running buffer at 100, 50 or 0.5 μM were injected for 60 s at a flow rate of 30 μL/min and association phases were recorded. Dissociation of the samples was monitored for 600 s. Data processing was performed using Biacore Insight Software (Biacore, GE Healthcare). Sensorgrams recorded on a SA flow cell without captured protein were subtracted from sensorgrams recorded on the SOS1 surface. Blank injections of running buffer were used for double referencing and solvent correction was applied to all sample sensorgrams to correct for buffer mismatches. KDs were estimated using a kinetic or steady state, where applicable, fitting model describing a reversible equilibrium with 1:1 binding between SOS1 and the compound.

Sequence of SOS1:KRAS (G12C) interaction (Q07889 564-1049, stated change not applied): as the sequence (Q07889 564-1049) above

Compound | pIC50 [1] | pKd [2]
C[C@@H](Nc1nn(C)c(=O)c2cc(=O)n(C34CC(C(=O)N(C)C)(C3)C4)cc12)c1cccc(C(F)F)c1F [Example 69, (R)-3-(4-((1-(3-(difluoromethyl)-2-fluorophenyl)ethyl)amino)-2-methyl-1,7-dioxo-1,7-dihydropyrido[3,4-d]pyridazin-6(2H)-yl)-N,N-dimethylbicyclo[1.1.1]pentane-1-carboxamide] | 7.46 | 8.00
C[C@@H](Nc1nn(C)c(=O)c2cc(=O)n(C3CC3)cc12)c1cccc2sccc12 [Example 64, (R)-4-((1-(benzo[b]thiophen-4-yl)ethyl)amino)-6-cyclopropyl-2-methyl-2,6-dihydropyrido[3,4-d]pyridazine-1,7-dione] | 6.90 | 7.51
Cc1c([C@@H](C)Nc2nn(C)c(=O)c3c(N)c(=O)n(C4CC4)cc23)cccc1C(F)(F)F [Example 12, (R)-8-amino-6-cyclopropyl-2-methyl-4-((1-(2-methyl-3-(trifluoromethyl)phenyl)ethyl)amino)-2,6-dihydropyrido[3,4-d]pyridazine-1,7-dione] | 5.88 | 6.54
COc1c(=O)n([C@@H]2CCOC[C@@H]2F)cc2c(N[C@H](C)c3cccc(C(F)F)c3F)nn(C)c(=O)c12 (single isomer, unassigned) [Example 58] | 7.49 | 7.82
Cc1c([C@@H](C)Nc2nn(C)c(=O)c3cc(=O)n(C4(C)CC4)cc23)cccc1C(F)(F)F [Example 15, (R)-2-methyl-4-((1-(2-methyl-3-(trifluoromethyl)phenyl)ethyl)amino)-6-(1-methylcyclopropyl)-2,6-dihydropyrido[3,4-d]pyridazine-1,7-dione] | 6.70 | 7.40
C[C@@H](Nc1nn(C)c(=O)c2cc(=O)n(C3CCOCC3)cc12)c1cccc2c1OCC2(F)F [Example 47, (R)-4-((1-(3,3-difluoro-2,3-dihydrobenzofuran-7-yl)ethyl)amino)-2-methyl-6-(tetrahydro-2H-pyran-4-yl)-2,6-dihydropyrido[3,4-d]pyridazine-1,7-dione] | 7.08 | 8.22
C[C@H](Nc1nn(C)c(=O)c2cc(=O)n(C3CCOCC3)cc12)c1cccc(C(F)(F)[C@@H]2CCCO2)c1F (single isomer, unassigned) [Example 44] | 5.24 | < 5.30
C[C@H](Nc1nn(C)c(=O)c2cc(=O)n(C3CCOCC3)cc12)c1cccc2c1CCC2(F)F [Example 68, (S)-4-((1-(1,1-difluoro-2,3-dihydro-1H-inden-4-yl)ethyl)amino)-2-methyl-6-(tetrahydro-2H-pyran-4-yl)pyrido[3,4-d]pyridazine-1,7(2H,6H)-dione] | 5.77 | 5.83
COc1c(=O)n(C2CCCCC2)cc2c(N[C@H](C)c3cccc(C(F)F)c3F)nn(C)c(=O)c12 [Example 49, (R)-6-cyclohexyl-4-((1-(3-(difluoromethyl)-2-fluorophenyl)ethyl)amino)-8-methoxy-2-methyl-2,6-dihydropyrido[3,4-d]pyridazine-1,7-dione] | 7.29 | 7.89
Cc1c([C@@H](C)Nc2nn(C)c(=O)c3c([C@@H]4CCCN4)c(=O)n(C4CC4)cc23)cccc1C(F)(F)F (single isomer, unassigned) [Example 34] | 7.36 | 8.00
C[C@@H](Nc1nn(C)c(=O)c2cc(=O)n(C3(C(F)F)CC3)cc12)c1cccc(C(F)F)c1F [Example 43, (R)-4-((1-(3-(difluoromethyl)-2-fluorophenyl)ethyl)amino)-6-(1-(difluoromethyl)cyclopropyl)-2-methyl-2,6-dihydropyrido[3,4-d]pyridazine-1,7-dione] | 7.22 | 7.62
COc1c(=O)n(C2CC2)cc2c(N[C@H](C)c3cccc(C(F)(F)F)c3C)nn(C)c(=O)c12 [Example 6, (R)-6-cyclopropyl-8-methoxy-2-methyl-4-((1-(2-methyl-3-(trifluoromethyl)phenyl)ethyl)amino)-2,6-dihydropyrido[3,4-d]pyridazine-1,7-dione] | 6.79 | 7.36
C[C@@H](Nc1nn(C)c(=O)c2cc(=O)n([C@]3(C)CCOC3)cc12)c1cccc(C(F)F)c1F (single isomer, unassigned) [Example 53] | 7.52 | 8.15
Cc1c([C@@H](C)Nc2nn(CCN3CC(C)(F)C3)c(=O)c3cc(=O)n(C4CC4)cc23)cccc1C(F)(F)F [Example 79, (R)-6-cyclopropyl-2-(2-(3-fluoro-3-methylazetidin-1-yl)ethyl)-4-((1-(2-methyl-3-(trifluoromethyl)phenyl)ethyl)amino)-2,6-dihydropyrido[3,4-d]pyridazine-1,7-dione] | 6.52 | 6.91
Cc1c([C@@H](C)Nc2nn(C)c(=O)c3cc(=O)n([C@]4(C)CCOC4)cc23)cccc1C(F)(F)F (single isomer, unassigned) [Example 55] | 7.49 | 7.85
Cc1c([C@@H](C)Nc2nn(C)c(=O)c3cc(=O)n([C@H]4C[C@@H](O)C4)cc23)cccc1C(F)(F)F [Example 14, 6-((1s,3s)-3-hydroxycyclobutyl)-2-methyl-4-(((R)-1-(2-methyl-3-(trifluoromethyl)phenyl)ethyl)amino)-2,6-dihydropyrido[3,4-d]pyridazine-1,7-dione] | 6.27 | 7.06
COc1c(=O)n(C2CCOCC2)cc2c(N[C@H](C)c3cccc(C(F)(F)C(C)(C)O)c3F)nn(C)c(=O)c12 [Example 41, (R)-4-((1-(3-(1,1-difluoro-2-hydroxy-2-methylpropyl)-2-fluorophenyl)ethyl)amino)-8-methoxy-2-methyl-6-(tetrahydro-2H-pyran-4-yl)-2,6-dihydropyrido[3,4-d]pyridazine-1,7-dione] | 7.55 | 7.85
Cc1cc([C@H](C)Nc2nn(C)c(=O)c3cc(=O)n(C4CC4)cc23)cc2c1c(C#N)nn2C (single isomer, unassigned) [Example 28] | 4.12 | 5.52
C[C@@H](Nc1nn(C)c(=O)c2cc(=O)n(C3CCOCC3)cc12)c1cccc2c(F)coc12 [Example 46, (R)-4-((1-(3-fluorobenzofuran-7-yl)ethyl)amino)-2-methyl-6-(tetrahydro-2H-pyran-4-yl)-2,6-dihydropyrido[3,4-d]pyridazine-1,7-dione] | 7.20 | 7.68
C[C@@H](Nc1nn(C)c(=O)c2cc(=O)n([C@@]3(C)CCOC3)cc12)c1cccc(C(F)F)c1F (single isomer, unassigned) [Example 52] | 6.57 | 7.12
Cc1c([C@@H](C)Nc2nn(C)c(=O)c3cc(=O)n(C4CC4)cc23)cccc1C(F)(F)F [Example 2, (R)-6-cyclopropyl-2-methyl-4-((1-(2-methyl-3-(trifluoromethyl)phenyl)ethyl)amino)-2,6-dihydropyrido[3,4-d]pyridazine-1,7-dione] | 6.48 | 7.24
C[C@H](Nc1nn(C)c(=O)c2cc(=O)n([C@H]3C[C@@H](C#N)C3)cc12)c1cccc(C(F)F)c1F [Example 75, (1S,3s)-3-(4-(((R)-1-(3-(difluoromethyl)-2-fluorophenyl)ethyl)amino)-2-methyl-1,7-dioxo-1,7-dihydropyrido[3,4-d]pyridazin-6(2H)-yl)cyclobutane-1-carbonitrile] | 6.90 | 7.14
Cc1c([C@@H](C)Nc2nn(C)c(=O)c3cc(=O)n(C4CCNCC4)cc23)cccc1C(F)(F)F [Example 22, (R)-2-methyl-4-((1-(2-methyl-3-(trifluoromethyl)phenyl)ethyl)amino)-6-(piperidin-4-yl)-2,6-dihydropyrido[3,4-d]pyridazine-1,7-dione] | 6.46 | 7.13
C[C@@H](Nc1nn(C)c(=O)c2cc(=O)n(C34COC(CF)(C3)C4)cc12)c1cccc(C(F)F)c1F [Example 178, (R)-4-((1-(3-(difluoromethyl)-2-fluorophenyl)ethyl)amino)-6-(1-(fluoromethyl)-2-oxabicyclo[2.1.1]hexan-4-yl)-2-methyl-2,6-dihydropyrido[3,4-d]pyridazine-1,7-dione] | 7.12 | –
Cc1cc([C@@H](C)Nc2nn(C)c(=O)c3cc(=O)n(C4CC4)cc23)cc(C(F)(F)F)c1 [Example 118, 6-cyclopropyl-2-methyl-4-[[(1R)-1-[3-methyl-5-(trifluoromethyl)phenyl]ethyl]amino]pyrido[3,4-d]pyridazine-1,7-dione] | < 5.00 | –
